We go through 7 compounds from article PMC8258795 (Computational and Structural Biotechnology Journal, 2021).

pIC50, pKd: −log10 of the molar value.

The conditions of data set [1]: cited from earlier work; for BBB Permeable: prediction confirmed or corrected by literature.
The target of data set [2] is T1, LRRK2 G2019S (Homo sapiens, UniProt Q5S007, G2019S). In words: LRRK2 G2019S kinase activity inhibition, 33P-ATP P81 filter-binding (Reaction Biology). Type of data set: biochemical. On the procedure:
(§1) The six hit compounds from the virtual screening were ordered from Selleckchem (Houston, Texas, USA). […] Stocks of all compounds were shipped to Reaction Biology Corporation (Malvern, Pennsylvania, USA) and Eurofins DiscoverX (Fremont, California, USA) for IC50 and Kd determination, respectively. The IC50 and Kd assays were performed as service by the companies.
Compounds were dissolved and diluted in 100% DMSO. […] Compounds were delivered into the reaction mixture. After a 20 min incubation, ^33P-ATP was added to a final concentration of 10 μM to initiate the reaction. Reactions were carried out for 2 h at room temperature. The final enzyme and substrate concentrations were 20 nM and 20 μM, respectively. Kinase activity was detected by the P81 filter-binding method. The whole procedure is also described in [40].
(§2) A specific challenge to our drug repositioning approach was the use of a homolog structure as template instead of a LRRK2 structure. To validate the virtual screening results, all six top candidates were tested for in vitro inhibition of LRRK2 kinase activity.

The target in data set [3] is T1, LRRK2 G2019S. In words: KINOMEscan competition binding assay (Eurofins DiscoverX). To be noted: competition with active-site directed ligand, duplicates. On the procedure:
as §1
The compounds were tested at 11 different concentrations in duplicates with 3-fold serial dilution starting at 100 μM. Compounds were dissolved and diluted in 100% DMSO. […] Shortly, streptavidin-coated magnetic beads were treated with the biotinylated competitive ligand for 30 min at room temperature. The liganded beads were blocked with excess biotin and washed with blocking buffer (SeaBlock (Pierce), 1% BSA, 0.05% Tween 20, 1 mM DTT) to remove unbound ligand and to reduce non-specific binding. […] The kinase concentration in the eluates was measured by qPCR.
as §2

[4] abbreviates: peptide substrate, 10 μM ATP, duplicates.

Consider `C[C@@H](Oc1cc(-c2cnn(C3CCNCC3)c2)cnc1N)c1c(Cl)ccc(F)c1Cl` [Crizotinib], for which the “BBB Permeable” value in data set [1] is “poor and No”.
`O=C1Nc2ccc(Cl)cc2[C@@](C#CC2CC2)(C(F)(F)F)O1` [Efavirenz]: at LRRK2 G2019S [2] (setting [4]), the negative-log IC50 (pIC50) was less than 4.00. This compound showed a pKd at LRRK2 G2019S [3] of less than 4.00. The “BBB Permeable” value in data set [1] is “supported by literature and Yes”.
`O=C1Nc2ccc(I)cc2/C1=C/c1cc(Br)c(O)c(Br)c1` [GW 5074]: the pIC50 on LRRK2 G2019S [2] (setting [4]) is greater than 8.29. This compound also had a pKd on LRRK2 G2019S [3] of 6.10.
With `C[C@H]1Oc2cc(cnc2N)-c2c(nn(C)c2C#N)CN(C)C(=O)c2ccc(F)cc21` [Lorlatinib], the brain penetration result in data set [1] (statement in discussion) is reported as “brain penetrant”.
Compound `Fc1ccc([C@@H]2CCNC[C@H]2COc2ccc3c(c2)OCO3)cc1` [Paroxetine] had a pIC50 on LRRK2 G2019S [2] (setting [4]) of less than 4.00. On LRRK2 G2019S [3], this compound had a pKd of less than 4.00. In addition, the “BBB Permeable” value in data set [1] is “supported by literature and Yes”.
In the case of `CCN(CC)CCNC(=O)c1c(C)[nH]c(/C=C2\C(=O)Nc3ccc(F)cc32)c1C` [Sunitinib], the “BBB Permeable” value in data set [1] is “supported by literature and Yes”.
As to `CCCc1nc(C)c2c(=O)[nH]c(-c3cc(S(=O)(=O)N4CCN(CC)CC4)ccc3OCC)nn12` [Vardenafil], the pIC50 on LRRK2 G2019S [2] (values in text) was 4.33. On LRRK2 G2019S [3], the pKd is less than 4.00.
